Assay results published in US11000033B2, “Ketone or oxime compound, and herbicide” (NISSAN CHEMICAL CORPORATION, priority 2014, dated 2021).

Legend:
Assay type in all cases: in vivo
Monochoria vaginalis = assay: Test Example 1: herbicidal activity, application before weed generation in submerged conditions (symbol C)
Summary of the method: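 Flooded alluvial soil (4 cm water) was mixed-sown with the three weed species, and 2.5-leaf rice seedlings were transplanted. On sowing day, a water-diluted emulsion at a predetermined rate was applied to the water surface. After 3 weeks in a 25–30 °C greenhouse, effect was scored 0–5.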

transplanted rice plant = assay: Test Example 1: effect on crop, application before weed generation in submerged conditions (symbol a)
Summary of the method: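 Alluvial soil pots flooded to 4 cm water, sown with Echinochloa oryzacola, Scirpus juncoides and Monochoria vaginalis, then transplanted with 2.5 leaf stage rice seedlings; pre-emergence application. Greenhouse 25° C. to 30° C.; scored 0–5 by herbicidal ratio 3 weeks after application.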

Leptochloa chinensis = assay: Test Example 3: herbicidal effect by foliage application, Wagner pot (symbol D); settings: for D (Leptochloa chinensis) herbicidal effect grade: Table 24
Summary of the method: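 Post-emergence, paddy-type test: seedlings 14 d old in shallow-flooded (0.1–0.5 cm) alluvial soil, 25–30 °C greenhouse. Emulsion diluted to target rate, sprayed on leaves. Read-out: visual effect on each species at 3 weeks, per set criteria.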

[1] = system: directly sowed rice plant; assay: Test Example 3: effect on crop by foliage application, Wagner pot (symbol b); settings: for b (directly sowed rice plant) effect on crop grade: Table 24
Summary of the method: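 Alluvial soil in a 1/10000-are Wagner pot was flooded to a water depth of 0.1–0.5 cm. Echinochloa crus-galli var. crus-galli, Leptochloa chinensis, Cyperus difformis and rice were sown into it and grown in a greenhouse at 25–30 °C.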

Digitaria ciliaris = assay: Test Example 4: herbicidal effect by soil treatment (symbol F)
Summary of the method: (§1)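 Seeds were sown in sterilized diluvial soil, covered with about 1.5 cm of soil, and the soil surface was sprayed with a water-diluted emulsion of the compound at a predetermined rate. Plants grew in a greenhouse at 25° C. to 30° C.; effects were scored visually 3 weeks after application.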

Abutilon theophrasti = assay: Test Example 4: herbicidal effect by soil treatment (symbol M)
Summary of the method: as §1

Amaranthus retroflexus = assay: Test Example 4: herbicidal effect by soil treatment (symbol N)
Summary of the method: as §1

rapeseed = assay: Test Example 4: effect on crop by soil treatment (symbol g)
Summary of the method: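 Greenhouse culture at 25° C. to 30° C. followed sowing of seed in spots on sterilized diluvial soil with a soil cover close to 1.5 cm thick.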

Apera spica-venti = assay: Test Example 5: herbicidal effect by foliage application, plastic box (symbol L); settings: 3 weeks after application
Summary of the method: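 Seeds were sown in sterilized diluvial soil, covered with about 1.5 cm of soil and grown 14 days in a greenhouse at 25° C. to 30° C. An emulsifiable formulation diluted in water to a set rate was sprayed over foliage, and injury was scored 3 weeks later.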

corn = assay: Test Example 5: effect on crop by foliage application, plastic box (symbol c); settings: 3 weeks after application
Summary of the method: (§2)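 Box culture: sterile diluvial soil, seeds spot-sown, ~1.5 cm cover, raised under glass at 25–30° C.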

wheat = assay: Test Example 5: effect on crop by foliage application, plastic box (symbol e); settings: 3 weeks after application
Summary of the method: as §2

beet = assay: Test Example 5: effect on crop by foliage application, plastic box (symbol f); settings: 3 weeks after application
Summary of the method: as §2

[2] = application herbicide amount 320 g/ha
[3] = application herbicide amount 192 g/ha

CC(CC1CC(O)=C(c2c(C)cc(C)cc2C)C1=O)=NOCC1CC1(F)F (stereo not drawn) [1-109]
Herbicidal effect grade, C: Monochoria vaginalis (Monochoria vaginalis; [2]): 3 (Herbicidal ratio of 40% or higher and lower than 70%) | Effect grade on crop, a: transplanted rice plant (transplanted rice plant; [2]): 5 (Herbicidal ratio of 90% or more (almost completely withered)) | herbicidal effect on D (Leptochloa chinensis), grade 0-5 (Leptochloa chinensis; [2]): 5 (Herbicidal ratio of 90% or more (almost completely withered)) | effect on crop b (directly sowed rice plant), grade 0-5 [1, 2]: 5 (Herbicidal ratio of 90% or more (almost completely withered)) | F: Digitaria ciliaris, herbicidal effect grade (Digitaria ciliaris; 320 g/ha): 5 (Herbicidal ratio of 90% or more (almost completely withered)) | M: Abutilon theophrasti, herbicidal effect grade (Abutilon theophrasti; 320 g/ha): 4 (Herbicidal ratio of 70% or higher and lower than 90%) | N: Amaranthus retroflexus, herbicidal effect grade (Amaranthus retroflexus; 320 g/ha): 3 (Herbicidal ratio of 40% or higher and lower than 70%) | g: rapeseed, effect grade on crop (rapeseed; 320 g/ha): 4 (Herbicidal ratio of 70% or higher and lower than 90%) | L: Apera spica-venti, herbicidal effect (criteria 0-5) (Apera spica-venti; 320 g/ha): 5 (Herbicidal ratio of 90% or more (almost completely withered)) | c: corn, effect on crop (criteria 0-5) (corn; 320 g/ha): 5 (Herbicidal ratio of 90% or more (almost completely withered)) | e: wheat, effect on crop (criteria 0-5) (wheat; 320 g/ha): 5 (Herbicidal ratio of 90% or more (almost completely withered)) | f: beet, effect on crop (criteria 0-5) (beet; 320 g/ha): 0 (Herbicidal ratio of 5% or lower (almost no effect))

CON=C(C)CC1CC(OC(=O)c2cc(C)on2)=C(c2c(C)cc(C)cc2C)C1=O (stereo not drawn) [1-100]
Herbicidal effect grade, C: Monochoria vaginalis (Monochoria vaginalis; [2]): 3 (Herbicidal ratio of 40% or higher and lower than 70%) | Effect grade on crop, a: transplanted rice plant (transplanted rice plant; [2]): 5 (Herbicidal ratio of 90% or more (almost completely withered)) | herbicidal effect on D (Leptochloa chinensis), grade 0-5 (Leptochloa chinensis; [2]): 5 (Herbicidal ratio of 90% or more (almost completely withered)) | effect on crop b (directly sowed rice plant), grade 0-5 [1, 2]: 5 (Herbicidal ratio of 90% or more (almost completely withered)) | F: Digitaria ciliaris, herbicidal effect grade (Digitaria ciliaris; 320 g/ha): 5 (Herbicidal ratio of 90% or more (almost completely withered)) | M: Abutilon theophrasti, herbicidal effect grade (Abutilon theophrasti; 320 g/ha): 4 (Herbicidal ratio of 70% or higher and lower than 90%) | N: Amaranthus retroflexus, herbicidal effect grade (Amaranthus retroflexus; 320 g/ha): 2 (Herbicidal ratio of 20% or higher and lower than 40%) | g: rapeseed, effect grade on crop (rapeseed; 320 g/ha): 3 (Herbicidal ratio of 40% or higher and lower than 70%) | L: Apera spica-venti, herbicidal effect (criteria 0-5) (Apera spica-venti; 320 g/ha): 5 (Herbicidal ratio of 90% or more (almost completely withered)) | c: corn, effect on crop (criteria 0-5) (corn; 320 g/ha): 5 (Herbicidal ratio of 90% or more (almost completely withered)) | e: wheat, effect on crop (criteria 0-5) (wheat; 320 g/ha): 5 (Herbicidal ratio of 90% or more (almost completely withered)) | f: beet, effect on crop (criteria 0-5) (beet; 320 g/ha): 0 (Herbicidal ratio of 5% or lower (almost no effect))

CC#Cc1cc(C)c(C2=C(OC(=O)COc3ccccc3)CC(CC(C)=NOCC(F)(F)F)C2=O)c(C)c1 (stereo not drawn) [9-013]
C (Monochoria vaginalis) herbicidal effect grade (Monochoria vaginalis; [2]): 1 (Herbicidal ratio of 5% or higher and lower than 20%) | a (transplanted rice plant) effect on crop grade (transplanted rice plant; [2]): 5 (Herbicidal ratio of 90% or more (almost completely withered)) | D (Leptochloa chinensis) herbicidal effect grade (Leptochloa chinensis; [2]): 5 (Herbicidal ratio of 90% or more (almost completely withered)) | b (directly sowed rice plant) effect on crop grade [1, 2]: 5 (Herbicidal ratio of 90% or more (almost completely withered)) | Herbicidal effect grade, F: Digitaria ciliaris (Digitaria ciliaris; [2]): 5 (Herbicidal ratio of 90% or more (almost completely withered)) | Herbicidal effect grade, M: Abutilon theophrasti (Abutilon theophrasti; [2]): 3 (Herbicidal ratio of 40% or higher and lower than 70%) | Herbicidal effect grade, N: Amaranthus retroflexus (Amaranthus retroflexus; [2]): 1 (Herbicidal ratio of 5% or higher and lower than 20%) | Effect on crop grade, g: rapeseed (rapeseed; [2]): 4 (Herbicidal ratio of 70% or higher and lower than 90%) | L: Apera spica-venti, herbicidal effect grade (Apera spica-venti; 320 g/ha): 5 (Herbicidal ratio of 90% or more (almost completely withered)) | c: corn, effect on crop grade (corn; 320 g/ha): 5 (Herbicidal ratio of 90% or more (almost completely withered)) | e: wheat, effect on crop grade (wheat; 320 g/ha): 4 (Herbicidal ratio of 70% or higher and lower than 90%) | f: beet, effect on crop grade (beet; 320 g/ha): 4 (Herbicidal ratio of 70% or higher and lower than 90%)

CON=C(C)CC1CC(OC(=O)C2CCCO2)=C(c2c(C)cc(C)cc2C)C1=O (stereo not drawn) [1-076]
Herbicidal effect grade, C: Monochoria vaginalis (Monochoria vaginalis; [3]): 0 (Herbicidal ratio of 5% or lower (almost no effect)) | Effect grade on crop, a: transplanted rice plant (transplanted rice plant; [3]): 5 (Herbicidal ratio of 90% or more (almost completely withered)) | herbicidal effect on D (Leptochloa chinensis), grade 0-5 (Leptochloa chinensis; [3]): 5 (Herbicidal ratio of 90% or more (almost completely withered)) | effect on crop b (directly sowed rice plant), grade 0-5 [1, 3]: 5 (Herbicidal ratio of 90% or more (almost completely withered)) | F: Digitaria ciliaris, herbicidal effect grade (Digitaria ciliaris; 192 g/ha): 5 (Herbicidal ratio of 90% or more (almost completely withered)) | M: Abutilon theophrasti, herbicidal effect grade (Abutilon theophrasti; 192 g/ha): 4 (Herbicidal ratio of 70% or higher and lower than 90%) | N: Amaranthus retroflexus, herbicidal effect grade (Amaranthus retroflexus; 192 g/ha): 4 (Herbicidal ratio of 70% or higher and lower than 90%) | g: rapeseed, effect grade on crop (rapeseed; 192 g/ha): 4 (Herbicidal ratio of 70% or higher and lower than 90%) | L: Apera spica-venti, herbicidal effect (criteria 0-5) (Apera spica-venti; 192 g/ha): 5 (Herbicidal ratio of 90% or more (almost completely withered)) | c: corn, effect on crop (criteria 0-5) (corn; 192 g/ha): 4 (Herbicidal ratio of 70% or higher and lower than 90%) | e: wheat, effect on crop (criteria 0-5) (wheat; 192 g/ha): 5 (Herbicidal ratio of 90% or more (almost completely withered)) | f: beet, effect on crop (criteria 0-5) (beet; 192 g/ha): 0 (Herbicidal ratio of 5% or lower (almost no effect))

CON=C(CC1CC(OC(=O)C(C)(C)C)=C(c2c(C)cc(C)cc2OC)C1=O)C1CC1 (mixture of isomers) [13-006]
C (Monochoria vaginalis) herbicidal effect grade (Monochoria vaginalis; [2]): 4 (Herbicidal ratio of 70% or higher and lower than 90%) | a (transplanted rice plant) effect on crop grade (transplanted rice plant; [2]): 5 (Herbicidal ratio of 90% or more (almost completely withered)) | D (Leptochloa chinensis) herbicidal effect grade (Leptochloa chinensis; [2]): 5 (Herbicidal ratio of 90% or more (almost completely withered)) | b (directly sowed rice plant) effect on crop grade [1, 2]: 5 (Herbicidal ratio of 90% or more (almost completely withered)) | F: Digitaria ciliaris, herbicidal effect grade (Digitaria ciliaris; [2]): 5 (Herbicidal ratio of 90% or more (almost completely withered)) | M: Abutilon theophrasti, herbicidal effect grade (Abutilon theophrasti; [2]): 5 (Herbicidal ratio of 90% or more (almost completely withered)) | N: Amaranthus retroflexus, herbicidal effect grade (Amaranthus retroflexus; [2]): 0 (Herbicidal ratio of 5% or lower (almost no effect)) | g: rapeseed, effect on crop grade (rapeseed; [2]): 3 (Herbicidal ratio of 40% or higher and lower than 70%) | L: Apera spica-venti, herbicidal effect grade (Apera spica-venti; 320 g/ha): 5 (Herbicidal ratio of 90% or more (almost completely withered)) | c: corn, effect on crop grade (corn; 320 g/ha): 5 (Herbicidal ratio of 90% or more (almost completely withered)) | e: wheat, effect on crop grade (wheat; 320 g/ha): 5 (Herbicidal ratio of 90% or more (almost completely withered)) | f: beet, effect on crop grade (beet; 320 g/ha): 3 (Herbicidal ratio of 40% or higher and lower than 70%)

Cc1cc(Br)cc(C)c1C1=C(O)CC(CC(=NOCC(F)(F)F)C2CC2)C1=O (stereo not drawn) [9-009]
C (Monochoria vaginalis) herbicidal effect grade (Monochoria vaginalis; [2]): 0 (Herbicidal ratio of 5% or lower (almost no effect)) | a (transplanted rice plant) effect on crop grade (transplanted rice plant; [2]): 5 (Herbicidal ratio of 90% or more (almost completely withered)) | D (Leptochloa chinensis) herbicidal effect grade (Leptochloa chinensis; [2]): 5 (Herbicidal ratio of 90% or more (almost completely withered)) | b (directly sowed rice plant) effect on crop grade [1, 2]: 5 (Herbicidal ratio of 90% or more (almost completely withered)) | Herbicidal effect grade, F: Digitaria ciliaris (Digitaria ciliaris; [2]): 5 (Herbicidal ratio of 90% or more (almost completely withered)) | Herbicidal effect grade, M: Abutilon theophrasti (Abutilon theophrasti; [2]): 0 (Herbicidal ratio of 5% or lower (almost no effect)) | Herbicidal effect grade, N: Amaranthus retroflexus (Amaranthus retroflexus; [2]): 0 (Herbicidal ratio of 5% or lower (almost no effect)) | Effect on crop grade, g: rapeseed (rapeseed; [2]): 0 (Herbicidal ratio of 5% or lower (almost no effect)) | L: Apera spica-venti, herbicidal effect grade (Apera spica-venti; 320 g/ha): 5 (Herbicidal ratio of 90% or more (almost completely withered)) | c: corn, effect on crop grade (corn; 320 g/ha): 3 (Herbicidal ratio of 40% or higher and lower than 70%) | e: wheat, effect on crop grade (wheat; 320 g/ha): 0 (Herbicidal ratio of 5% or lower (almost no effect)) | f: beet, effect on crop grade (beet; 320 g/ha): 0 (Herbicidal ratio of 5% or lower (almost no effect))
